According to patent US11761894B2, “Silicon-rhodamine fluorescent probe containing hydrophobic group and use thereof” (AJOU UNIVERSITY INDUSTRY—ACADEMIC COOPERATION FOUNDATION, priority 2019, dated 2023):

Columns and labels:
[1] = Photophysical properties (excitation/emission wavelength, absolute quantum yield, fluorescence intensity in PBS); type: physicochemical
Description: All reactions were carried out under an atmosphere of nitrogen or argon in air-dried glassware with magnetic stirring. Air- and/or moisture-sensitive liquids were transferred with syringe. Organic solutions were concentrated by rotary evaporation at 25-60° C. at 15-30 torr. All solvents and common materials were purchased from suppliers and used without further purification. Column chromatography was carried out as “Flash Chromatography” using Biotage MPLC machine. ^1H NMR and ^13C NMR data were recorded on an JEOL ECZ-600R Magnetic Resonance System (600 MHz) in Ajou University. Recorded shifts are reported in parts per million (6): Chemical shift, multiplicity (s=singlet, d=doublet, t=triplet, q=quartet, m=multiplet, br=broad), coupling constant (J, Hz) and integration. Low resolution mass spectrometry (LRMS) was obtained by LC/MS system, Finnigan MSQplus Surveyer (Thermo Scientific) or 6120 Quadrupole LC/MS (Agilent Technologies). The progress of reaction was monitored using thin layer chromatography (TLC) (silica gel 60, F254 0.25 mm), and components were visualized by observation under UV light (254 and 365 nm) or by treating the TLC plates with Phosphonolybdic acid (PMA), KMnO4, or ninhydrin followed by heating. Cell culture reagents including fatal bovine serum, culture media, and antibiotic-antimycotic solution were purchased from GIBCO. MitoTracker Green, and Hoechst were purchased from Invitrogen. The culture dish and glassbottom dish were purchased from CORNING, and SPL. All spectra experiments were performed in a 1×1 cm quartz cuvette. Fluorescence emission spectra were recorded on JASCO FP-8200 spectrofluorometer, and UV absorption spectra were recorded on JASCO V-670 spectrophotometer. Absolute quantum yield was measured by QE-2000 (Otsuka Electronics).

[2] = tested on: Hep3B liver cancer cells vs L02 or Chang normal liver cells; experiment: Comparison of fluorescence intensity between normal cells and cancer cells; type: cell-based, human; conditions: 1 μM, 1 h
Description: (a) Cells were incubated with full growth media containing SiR-Mito 8 (1 μM) and Hoechst dye (0.01 μg/ml) for 1 h. The cells were washed 3 times with growth media and observed with a LEICA DMi8 fluorescent microscope. […] (b) Quantification of the fluorescence intensity of SiR-Mito 8 in L02, Chang liver and in Hep3B cells. Scale bar: 50 μm.
Therefore, the present inventors envisioned that SiR-Mito 8 could differentiate cancer cells from normal cells without involving ligand conjugation. For fluorescent tumor imaging, human liver cancer Hep3B cells and the human hepatocyte line L02 were incubated with 1.0 μM SiR-Mito 8 for 1 hour, washed three times with cell growth media, and imaged using a LEICA DMi8 fluorescence microscope.
Specifically, Hep3B human liver cancer cells were cultured in Dulbecco's modified eagle media (DMEM, GIBCO) containing 10% fetal bovine serum (FBS, GIBCO) and 1% penicillin (GIBCO), and L02 or Chang human liver normal cells were cultured in Roswell Park Memorial Institute (RPMI, CAPRICORN) 1640 with L-Glutamine containing 10% FBS (GIBCO) and 1% Penicillin (HyClone) at 37° C. in a humidified incubator with 5% CO2. For the fluorescence microscope imaging, cells were harvested using TrypLE™ Express (GIBCO) and resuspended in fresh culture medium. […] Cells were washed with cell culture media for three times and observed with inverted fluorescence microscope (DMi8, LEICA).

[3] = tested on: HeLa, and Hep3B cells; experiment: High-resolution live cell imaging of SiR-Mito 8 with MitoTracker green; type: cell-based, human; conditions: 1 μM, 60 min
Description: (a) HeLa and Hep3B cells were incubated with MitoTracker Green (0.5 μM), and SiR-Mito 8 (1 μM) for 1 h. After washing 3 times with fresh media, fluorescent live cell images were acquired with LEICA DMi8 microscope. (MitoTracker green: FITC channel, SiR-Mito 8: Cy 5 channel, Scale bar: 15 μm); (b) Chang liver cells expressing mitochondrial YFP were incubated with SiR-Mito 8 (1 μM) for 1 h. After washing 3 times with fresh media, fluorescent live cell images were acquired with LEICA DMi8 microscope. (Mitochondrial-YFP: Rhodamine channel, Scale bar: 15 μm).
Mitochondrial specificity in live cells labeled with SiR-Mito 8 and MitoTracker green was examined by high-resolution imaging.
To this end, HeLa, and Hep3B cells were cultured in Dulbecco's modified eagle media (DMEM, GIBCO) containing 10% fetal bovine serum (FBS, GIBCO) and 1% penicillin (GIBCO) at 37° C. in a humidified incubator with 5% CO2. For the fluorescence microscope imaging, cells were harvested using TrypLE™ Express (GIBCO) and resuspended in fresh culture medium. Harvested cells were seeded on a confocal dish with a density of 4.0×10^4 cells/well. After 24 h incubation, cells were incubated with SiR-Mito 8 (1 μM) and Mitotracker green (0.5 uM) for 60 min. Cells were washed three times with 1×PBS and observed with inverted fluorescence microscope (DMi8, LEICA).

[4] = tested on: HeLa, Hep3B, HepG2 and Raw 264.7 cells; experiment: Cytotoxicity test (mitochondrial respiration viability assay, CellTiter 96 Aqueous One); type: cell-based, human; mouse; conditions: up to the 24 hr time point, moderate dose (less than 1 μM)
Description: HeLa, Hep3B, HepG2 and Raw 264.7 cells were incubated with SiR-Mito 8, concentration range from 0.25 μM to 10 μM, for 1, 4, 12, and 24 h. Viability of the cells was normalized by DMSO control.
In order to use SiR-Mito 8 as a potential NIR fluorescent tracer for mitochondrial staining, cytotoxicity of the probes was evaluated. HeLa, Hep3B, HepG2 and Raw 264.7 cells were incubated with SiR-Mito 8 at various concentrations (from 0.25 to 10.0 μM) and cytotoxicity was measured by a mitochondrial respiration viability assay.
Specifically, HeLa human cervical cancer cells, Hep3B and HepG2 human hepatocellular carcinoma cells, and Raw264.7 mouse macrophage cells were seeded into 96-well cell culture plates per well and allowed to adhere to the plates overnight. The cells were incubated with cell culture media containing each concentration of SiR-Mito 8 (0.25 μM to 10 μM) for 1, 4, 12 or 24 h. After incubation, CellTiter 96® Aqueous One Solution Cell Proliferation Assay (Promega) was added into each well. After 2 h, 490 nm absorption was measured with Cytation 3 microplate reader (BioTek). Cytotoxicity of SiR-Mito 8 was tested in triplicate in a single experiment, with each experiment being repeated at least three times.

With “N-(10-(5-((cyclooctylmethyl) carbamoyl)-2-methylphenyl)-7-(dimethylamino)-5,5-dimethyldibenzo[b,e]silin-3(5H)-ylidene)-N-methylmethanaminium [SiR-Mito 8]” as the substance, how does the “Em (emission wavelength)” value [1] read?
The value was 668 nm.

What about the “Ex (excitation wavelength)” value [1] of the same substance?
Its value is 651 nm.

And the “Φ (quantum yield)” value ([1]; absolute quantum yield)?
Its value is 0.33.

And the “Fluorescence intensity in cancer cells versus normal cells” value [2]?
The value was “higher fluorescence intensity than normal cells”.

What about the “Mitochondrial specificity in live cells (co-expression with MitoTracker green)” value [3] of the same substance?
Its value is “highly co-expressed”.

And the Cytotoxicity [4]?
The Cytotoxicity was “no acute cytotoxicity”.
